Experimental data published in ChEMBL document CHEMBL5038655, “Development of Novel Dihydrofuro[3,4-d]pyrimidine Derivatives as HIV-1 NNRTIs to Overcome the Highly Resistant Mutant Strains F227L/V106A and K103N/Y181C” (J Med Chem, 2022).
pEC50, pIC50: −log10 of the molar value.

Experiments:
[1] = target: Human immunodeficiency virus type 1 reverse transcriptase (Human immunodeficiency virus 1, UniProt Q72547); assay: Inhibition of wild type HIV-1 reverse transcriptase using biotin-labelled dNTPs as substrate incubated for 2 hrs by ELISA
[2] = tested on: Human immunodeficiency virus 1; assay: Antiviral activity against HIV-1 IIIB infected in human MT4 cells assessed as protection against virus-induced cytotoxicity incubated for 5 days by MTT assay; assay type: functional, organism-based; details: Human immunodeficiency virus 1, IIIB, MT4, 120 h
[3] = tested on: Human immunodeficiency virus 1; assay: Antiviral activity against HIV-1 IIIB harboring K103N/Y181C double mutant infected in human MT4 cells assessed as protection against virus-induced cytotoxicity incubated for 5 days by MTT assay; assay type: functional, organism-based; details: Human immunodeficiency virus 1, IIIB, MT4, 120 h
[4] = Cytotoxicity against human MT4 cells assessed as reduction in cell viability incubated for 5 days by MTT assay; assay type: toxicity, cell-based; details: time 5 day
[5] = Selectivity index, ratio of CC50 for human MT4 cells to EC50 for antiviral activity against HIV-1 IIIB infected in human MT4 cells; assay type: toxicity, cell-based; details: MT4 cells (uninfected and infected with HIV-1 IIIB), read-out: Ratio CC50/EC50
[6] = Selectivity index, ratio of CC50 for human MT4 cells to EC50 for antiviral activity against HIV-1 IIIB harboring K103N/Y181C double mutant infected in human MT4 cells; assay type: toxicity, cell-based; details: read-out: Ratio CC50/EC50
[7] = tested on: Human immunodeficiency virus 1; assay: Antiviral activity against HIV1 L1001 infected in human MT4 cells assessed as protection against virus-induced cytopathic effect incubated for 5 days by MTT assay; assay type: functional, organism-based; details: Human immunodeficiency virus 1, L1001, MT4, 120 h
[8] = tested on: Human immunodeficiency virus 1; assay: Antiviral activity against HIV-1 harboring reverse transcriptase K103N mutant infected in human MT4 cells assessed as protection against virus-induced cytopathic effect incubated for 5 days by MTT assay; details: Human immunodeficiency virus 1, MT4, 120 h
[9] = tested on: Human immunodeficiency virus 1; assay: Antiviral activity against HIV-1 harboring reverse transcriptase Y181C mutant infected in human MT4 cells assessed as protection against virus-induced cytopathic effect incubated for 5 days by MTT assay; details: Human immunodeficiency virus 1, MT4, 120 h
[10] = tested on: Human immunodeficiency virus 1; assay: Antiviral activity against HIV-1 harboring reverse transcriptase Y188L mutant infected in human MT4 cells assessed as protection against virus-induced cytopathic effect incubated for 5 days by MTT assay; details: Human immunodeficiency virus 1, MT4, 120 h
[11] = tested on: Human immunodeficiency virus 1; assay: Antiviral activity against HIV-1 harboring reverse transcriptase E138K mutant infected in human MT4 cells assessed as protection against virus-induced cytopathic effect incubated for 5 days by MTT assay; details: Human immunodeficiency virus 1, MT4, 120 h
[12] = tested on: Human immunodeficiency virus 1; assay: Antiviral activity against HIV-1 harboring reverse transcriptase F227L/V106A mutant infected in human MT4 cells assessed as protection against virus-induced cytopathic effect incubated for 5 days by MTT assay; details: Human immunodeficiency virus 1, MT4, 120 h
[13] = tested on: Human immunodeficiency virus 1; assay: Antiviral activity against HIV-1 IIIB; assay type: functional, organism-based; details: Human immunodeficiency virus 1, IIIB
[14] = tested on: Human immunodeficiency virus 1; assay: Antiviral activity against HIV-1 IIIB harboring K103N/Y181C double mutant; assay type: functional, organism-based; details: Human immunodeficiency virus 1, IIIB
[15] = Cytotoxicity against human MT4 cells; assay type: toxicity, cell-based
[16] = Selectivity index, ratio of CC50 for human MT4 cells to EC50 for antiviral activity against HIV-1 IIIB; assay type: toxicity; details: read-out: Ratio CC50/EC50
[17] = Selectivity index, ratio of CC50 for human MT4 cells to EC50 for antiviral activity against HIV-1 IIIB harboring K103N/Y181C double mutant; assay type: toxicity; details: read-out: Ratio CC50/EC50
[18] = Aqueous solubility of the compound at pH 7.4 by HPLC analysis; assay type: physicochemical; details: buffer
[19] = Aqueous solubility of the compound at pH 7.0 by HPLC analysis; assay type: physicochemical; details: buffer

| SMILES | pIC50 [1] | pEC50 [2] | pEC50 [3] | CC50 at 120 h [4] [nM] | selectivity ratio [5] | selectivity ratio [6] | other results |
| --- | --- | --- | --- | --- | --- | --- | --- |
| Cc1cc(/C=C/C#N)cc(C)c1Oc1nc(Nc2ccc(N3CCC(NS(N)(=O)=O)CC3)cc2)nc2c1COC2 | 5.88 |  |  |  |  |  |  |
| Cc1cc(/C=C/C#N)cc(C)c1Oc1nc(NC2CCN(c3ccc(C(N)=O)cc3)CC2)nc2c1COC2 | 7.22 | 8.62 | 6.00 | > 233000 | > 97900 | > 234 |  |
| Cc1cc(/C=C/C#N)cc(C)c1Oc1nc(Nc2ccc(N3CCC(NS(C)(=O)=O)CC3)cc2)nc2c1COC2 | 6.34 |  |  |  |  |  |  |
| Cc1cc(/C=C/C#N)cc(C)c1Oc1nc(Nc2ccc(N3CCCC(NS(N)(=O)=O)C3)cc2)nc2c1COC2 (stereo unspecified) | 6.11 |  |  |  |  |  |  |
| Cc1cc(/C=C/C#N)cc(C)c1Oc1nc(Nc2ccc(CN3CCN(S(N)(=O)=O)CC3)cc2)nc2c1COC2 | 6.55 |  |  |  |  |  |  |
| Cc1cc(/C=C/C#N)cc(C)c1Oc1nc(NC2CCN(c3ccc(NS(N)(=O)=O)cc3)CC2)nc2c1COC2 | 6.92 | 7.77 | 7.05 | 23000 | 1370 | 260 | pEC50 [7]: 5.90; pEC50 [8]: 7.88; pEC50 [9]: 7.33; pEC50 [10]: 6.85; pEC50 [11]: 7.46; pEC50 [12]: 7.70 |
| Cc1cc(/C=C/C#N)cc(C)c1Oc1nc(NC2CCN(Cc3ccc(S(N)(=O)=O)cc3)CC2)nc2c1COC2 | 6.85 | 8.20 | 7.61 | 14700 | 2360 | 595 | pEC50 [7]: 8.29; pEC50 [8]: 8.22; pEC50 [9]: 8.11; pEC50 [10]: 7.42; pEC50 [11]: 7.99; pEC50 [12]: 7.92 |
| Cc1cc(/C=C/C#N)cc(C)c1Oc1nc(Nc2ccc(C3CCCN(S(C)(=O)=O)CC3)cc2)nc2c1COC2 (stereo unspecified) | 6.64 |  |  |  |  |  |  |
| Cc1cc(/C=C/C#N)cc(C)c1Oc1nc(NC2CCN(c3ccc(S(N)(=O)=O)cc3)CC2)nc2c1COC2 | 7.22 | 8.38 | 5.89 | 27300 | 6530 | 23 |  |
| Cc1cc(/C=C/C#N)cc(C)c1Oc1nc(Nc2ccc(N3CCN(S(N)(=O)=O)CC3)cc2)nc2c1COC2 | 6.15 |  |  |  |  |  |  |
| Cc1cc(/C=C/C#N)cc(C)c1Oc1nc(Nc2ccc(CN3CCN(S(C)(=O)=O)CC3)cc2)nc2c1COC2 | 6.82 |  |  |  |  |  |  |
| Cc1cc(/C=C/C#N)cc(C)c1Oc1nc(Nc2ccc(N3CCC(NS(N)(=O)=O)C3)cc2)nc2c1COC2 (stereo unspecified) | 5.97 |  |  |  |  |  |  |
| Cc1cc(/C=C/C#N)cc(C)c1Oc1nc(NC2CCN(Cc3ccc(S(C)(=O)=O)cc3)CC2)nc2c1COC2 | 6.82 | 8.36 | 7.46 | 9790 | 2260 | 283 | pEC50 [7]: 8.29; pEC50 [8]: 8.19; pEC50 [9]: 8.00; pEC50 [10]: 7.38; pEC50 [11]: 7.81; pEC50 [12]: 7.79 |
| Cc1cc(/C=C/C#N)cc(C)c1Oc1nc(Nc2ccc(N3CCC(NS(C)(=O)=O)C3)cc2)nc2c1COC2 (stereo unspecified) | 6.74 |  |  |  |  |  |  |
| Cc1cc(/C=C/C#N)cc(C)c1Oc1nc(Nc2ccc(C#N)cc2)nc2c1COC2 | 7.22 |  |  |  |  |  |  |
| Cc1cc(/C=C/C#N)cc(C)c1Oc1nc(NC2CCN(c3ccc(S(C)(=O)=O)cc3)CC2)nc2c1COC2 | 7.15 | 8.20 | 5.92 | 104000 | 16500 | 87 |  |
| Cc1cc(/C=C/C#N)cc(C)c1Oc1nc(NC2CCN(Cc3ccc([N+](=O)[O-])cc3)CC2)nc2c1COC2 | 6.74 | 8.08 | 7.19 | 6670 | 801 | 103 | pEC50 [7]: 7.98; pEC50 [8]: 8.11; pEC50 [9]: 7.57; pEC50 [10]: 7.03; pEC50 [11]: 7.66; pEC50 [12]: 7.22 |
| Cc1cc(/C=C/C#N)cc(C)c1Oc1nc(Nc2ccc(N3CCN(S(C)(=O)=O)CC3)cc2)nc2c1COC2 | 6.74 |  |  |  |  |  |  |
| Cc1cc(/C=C/C#N)cc(C)c1Oc1nc(Nc2ccc(N3CCCC(NS(C)(=O)=O)C3)cc2)nc2c1COC2 (stereo unspecified) | 5.91 |  |  |  |  |  |  |
| Cc1cc(/C=C/C#N)cc(C)c1Oc1nc(NC2CCN(Cc3ccc(N)cc3)CC2)nc2c1COC2 | 6.72 | 8.47 | 7.27 | 27000 | 8020 | 505 | pEC50 [7]: 7.99; pEC50 [8]: 8.25; pEC50 [9]: 8.03; pEC50 [10]: 7.29; pEC50 [11]: 8.04; pEC50 [12]: 7.42 |
| Cc1cc(/C=C/C#N)cc(C)c1Oc1nc(NC2CCN(Cc3ccc(C(F)(F)F)cc3)CC2)nc2c1COC2 | 6.44 | 7.71 | 6.72 | 5010 | 256 | 26 | pEC50 [7]: 7.46; pEC50 [8]: 7.52; pEC50 [9]: 7.18; pEC50 [10]: 6.55; pEC50 [11]: 6.89; pEC50 [12]: 6.70 |
| Cc1cc(/C=C/C#N)cc(C)c1Oc1nc(Nc2ccc(C3CCCN(S(N)(=O)=O)CC3)cc2)nc2c1COC2 (stereo unspecified) | 7.05 |  |  |  |  |  |  |
| Cc1cc(/C=C/C#N)cc(C)c1Oc1nc(NC2CCN(c3ccc(N)cc3)CC2)nc2c1COC2 | 6.74 | 7.45 | 6.60 | 9140 | 258 | 37 |  |
| Cn1c(Cn2ccc(C(F)(F)F)c(Oc3cc(Cl)cc(C#N)c3)c2=O)n[nH]c1=O [DORAVIRINE] |  |  |  |  |  |  | pEC50 [13]: 7.88; pEC50 [14]: 7.84; CC50 [15]: > 293000 nM; selectivity ratio [16]: > 21800; selectivity ratio [17]: > 20100 |
| Cc1cc(C#N)cc(C)c1Oc1nc(Nc2ccc(C#N)cc2)nc(N)c1Br [ETRAVIRINE] |  |  | 7.14 | > 4590 | > 1170 | > 64 | pEC50 [8]: 8.33; pEC50 [10]: 7.31; pEC50 [11]: 7.81; pEC50 [12]: 7.67; solubility [18]: < 1 µg/mL; solubility [19]: < 1 µg/mL |
| Cc1cc(/C=C/C#N)cc(C)c1Nc1ccnc(Nc2ccc(C#N)cc2)n1 [RILPIVIRINE] |  |  |  |  |  |  | solubility [18]: < 1 µg/mL; solubility [19]: < 1 µg/mL |
